{"source": "paper PMC5025758", "about": "(Nature Communications, 2016)", "target": "KasA (Mycobacterium tuberculosis, UniProt P9WQD9)", "sequence (P9WQD9 whole entry)": "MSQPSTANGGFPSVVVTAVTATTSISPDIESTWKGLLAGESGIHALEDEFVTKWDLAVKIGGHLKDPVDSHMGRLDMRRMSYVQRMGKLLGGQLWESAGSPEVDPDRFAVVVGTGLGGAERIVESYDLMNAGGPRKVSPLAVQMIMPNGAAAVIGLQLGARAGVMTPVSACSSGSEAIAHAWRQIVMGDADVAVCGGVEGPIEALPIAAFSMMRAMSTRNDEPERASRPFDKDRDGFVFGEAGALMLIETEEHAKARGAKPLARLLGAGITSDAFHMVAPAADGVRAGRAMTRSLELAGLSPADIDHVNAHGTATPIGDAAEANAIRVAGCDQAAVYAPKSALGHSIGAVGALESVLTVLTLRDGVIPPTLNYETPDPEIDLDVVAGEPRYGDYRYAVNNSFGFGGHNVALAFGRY", "type": "cell-based", "data": [{"compound": "CCCCS(=O)(=O)Nc1ccc2cnn(CCCN)c2c1", "note": "[compound 1, tagged analogue (1)]", "values": [{"measurement": "bead-immobilized probe captures KasA from M. bovis BCG extract, competed by free", "result": "only three proteins were efficiently competed off the beads by excess GSK3011724A: KasA"}]}]}
